Measured values published in PubChem BioAssay (NCI).
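Five compound concentrations were applied to cells in 96-well plates for 48 hours; endpoints were derived by simple linear interpolation of the resulting dose-response curve. TGI denotes the concentration required for complete inhibition of growth.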

What was measured:
Assay in all cases: NCI anticancer screen, dose series, 48 h
[1] = tested on: BT-549 breast
[2] = tested on: HS 578T breast
[3] = tested on: IGROV1 ovarian
[4] = tested on: ACHN renal
[5] = tested on: RPMI-8226 leukemia
[6] = tested on: NCI-H226 lung
[7] = tested on: MDA-N
[8] = tested on: MOLT-4 leukemia
[9] = tested on: OVCAR-3 ovarian
[10] = tested on: SN12C renal
[11] = tested on: SW-620 colon
[12] = tested on: NCI-H460 lung
[13] = tested on: RXF 393 renal
[14] = tested on: M14 melanoma
[15] = tested on: NCI-H23 lung
[16] = tested on: 786-0 renal
[17] = tested on: DU-145 prostate
[18] = tested on: UACC-257 melanoma
[19] = tested on: PC-3 prostate
[20] = tested on: KM12 colon
[21] = tested on: SR leukemia
[22] = tested on: CAKI-1 renal
[23] = tested on: OVCAR-5 ovarian
[24] = tested on: COLO 205 colon
[25] = tested on: HT29 colon
[26] = tested on: OVCAR-8 ovarian
[27] = tested on: K-562 leukemia
[28] = tested on: MDA-MB-231 breast
[29] = tested on: HCT-15 colon
[30] = tested on: HCT-116 colon
[31] = tested on: MALME-3M melanoma
[32] = tested on: SNB-19 CNS
[33] = tested on: NCI-H522 lung
[34] = tested on: SF-539 CNS
[35] = tested on: MCF7 breast
[36] = tested on: EKVX NSCLC
[37] = tested on: SF-268 CNS
[38] = tested on: UACC-62 melanoma
[39] = tested on: SF-295 CNS
[40] = tested on: SK-MEL-2 melanoma
[41] = tested on: HOP-92 NSCLC
[42] = tested on: A549 NSCLC
[43] = tested on: TK-10 renal
[44] = tested on: CCRF-CEM leukemia
[45] = tested on: HOP-62 NSCLC
[46] = tested on: HCC-2998 colon
[47] = tested on: SK-MEL-5 melanoma
[48] = tested on: SK-OV-3 ovarian
[49] = tested on: HL-60(TB) leukemia
[50] = tested on: LOX IMVI melanoma
[51] = tested on: SNB-75 CNS
[52] = tested on: OVCAR-4 ovarian
[53] = tested on: A498 renal
[54] = tested on: SK-MEL-28 melanoma
[55] = tested on: U251 CNS
[56] = tested on: T-47D breast
[57] = tested on: MDA-MB-435
[58] = tested on: UO-31 renal
[59] = tested on: NCI/ADR-RES ovarian

O=C1OC(c2ccc([N+](=O)[O-])cc2)=N/C1=C\c1ccc(O)cc1
TGI [1]: > 100 µM | TGI [2]: > 100 µM | TGI [3]: > 100 µM | TGI [4]: > 100 µM | TGI [5]: > 100 µM | TGI [6]: > 100 µM | TGI [7]: > 100 µM | TGI [8]: > 100 µM | TGI [9]: > 100 µM | TGI [10]: > 100 µM | TGI [11]: > 100 µM | TGI [12]: > 100 µM | TGI [13]: > 100 µM | TGI [14]: > 100 µM | TGI [15]: > 100 µM | TGI [16]: > 100 µM | TGI [17]: > 100 µM | TGI [18]: > 100 µM | TGI [19]: > 100 µM | TGI [20]: > 100 µM | TGI [21]: > 100 µM | TGI [22]: > 100 µM | TGI [23]: > 100 µM | TGI [24]: > 100 µM | TGI [25]: > 100 µM | TGI [26]: > 100 µM | TGI [27]: > 100 µM | TGI [28]: > 100 µM | TGI [29]: > 100 µM | TGI [30]: > 100 µM | TGI [31]: > 100 µM | TGI [32]: > 100 µM | TGI [33]: > 100 µM | TGI [34]: > 100 µM | TGI [35]: > 100 µM | TGI [36]: > 100 µM | TGI [37]: > 100 µM | TGI [38]: > 100 µM | TGI [39]: > 100 µM | TGI [40]: > 100 µM | TGI [41]: > 100 µM | TGI [42]: > 100 µM | TGI [43]: > 100 µM | TGI [44]: > 100 µM | TGI [45]: > 100 µM | TGI [46]: > 100 µM | TGI [47]: > 100 µM | TGI [48]: > 100 µM | TGI [49]: > 100 µM | TGI [50]: > 100 µM | TGI [51]: > 100 µM | TGI [52]: > 100 µM | TGI [53]: > 100 µM | TGI [54]: > 100 µM | TGI [55]: > 100 µM | TGI [56]: > 100 µM | TGI [57]: > 100 µM

CCOC(=O)Cn1nc2ccc(Nc3nc4ccccc4nc3C(=O)OCC)cc2n1
TGI [1]: > 100 µM | TGI [2]: > 100 µM | TGI [3]: > 100 µM | TGI [4]: > 100 µM | TGI [5]: > 100 µM | TGI [6]: > 100 µM | TGI [7]: > 100 µM | TGI [8]: > 100 µM | TGI [58]: > 100 µM | TGI [9]: > 100 µM | TGI [10]: > 100 µM | TGI [11]: > 100 µM | TGI [12]: > 100 µM | TGI [13]: 58.2 µM | TGI [14]: > 100 µM | TGI [15]: > 100 µM | TGI [16]: > 100 µM | TGI [17]: > 100 µM | TGI [18]: > 100 µM | TGI [19]: > 100 µM | TGI [20]: > 100 µM | TGI [21]: > 100 µM | TGI [22]: > 100 µM | TGI [23]: > 100 µM | TGI [24]: > 100 µM | TGI [25]: > 100 µM | TGI [26]: > 100 µM | TGI [27]: > 100 µM | TGI [29]: > 100 µM | TGI [30]: > 100 µM | TGI [31]: > 100 µM | TGI [32]: > 100 µM | TGI [33]: > 100 µM | TGI [34]: 52.8 µM | TGI [35]: > 100 µM | TGI [36]: > 100 µM | TGI [37]: > 100 µM | TGI [38]: > 100 µM | TGI [39]: > 100 µM | TGI [40]: > 100 µM | TGI [59]: > 100 µM | TGI [41]: > 100 µM | TGI [42]: > 100 µM | TGI [43]: > 100 µM | TGI [44]: > 100 µM | TGI [45]: > 100 µM | TGI [46]: > 100 µM | TGI [47]: > 100 µM | TGI [48]: > 100 µM | TGI [49]: > 100 µM | TGI [50]: > 100 µM | TGI [51]: 37.1 µM | TGI [52]: > 100 µM | TGI [53]: > 100 µM | TGI [54]: > 100 µM | TGI [55]: > 100 µM | TGI [56]: > 100 µM | TGI [57]: > 100 µM

COc1cccc(/C=N/n2c(-c3ccccc3)n[nH]c2=O)c1
TGI [1]: 86.1 µM | TGI [2]: 38.8 µM | TGI [4]: > 100 µM | TGI [5]: > 100 µM | TGI [6]: > 100 µM | TGI [7]: > 100 µM | TGI [8]: > 100 µM | TGI [58]: > 100 µM | TGI [9]: > 100 µM | TGI [10]: > 100 µM | TGI [11]: > 100 µM | TGI [12]: > 100 µM | TGI [14]: > 100 µM | TGI [15]: 90.5 µM | TGI [16]: > 100 µM | TGI [17]: > 100 µM | TGI [18]: > 100 µM | TGI [19]: > 100 µM | TGI [20]: > 100 µM | TGI [22]: > 100 µM | TGI [23]: > 100 µM | TGI [24]: > 100 µM | TGI [25]: > 100 µM | TGI [26]: 96.9 µM | TGI [27]: > 100 µM | TGI [28]: > 100 µM | TGI [29]: > 100 µM | TGI [30]: > 100 µM | TGI [31]: > 100 µM | TGI [32]: > 100 µM | TGI [34]: > 100 µM | TGI [35]: > 100 µM | TGI [36]: > 100 µM | TGI [37]: 39.8 µM | TGI [38]: > 100 µM | TGI [39]: 54.4 µM | TGI [40]: > 100 µM | TGI [59]: > 100 µM | TGI [42]: > 100 µM | TGI [44]: > 100 µM | TGI [45]: 63.5 µM | TGI [46]: > 100 µM | TGI [48]: > 100 µM | TGI [51]: 93.2 µM | TGI [52]: > 100 µM | TGI [53]: > 100 µM | TGI [54]: > 100 µM | TGI [55]: > 100 µM | TGI [56]: > 100 µM | TGI [57]: > 100 µM

Cc1c(-c2ccccc2)n(C)c2cn[nH]c(=O)c12
TGI [1]: > 100 µM | TGI [2]: > 100 µM | TGI [3]: > 100 µM | TGI [4]: > 100 µM | TGI [5]: > 100 µM | TGI [7]: > 100 µM | TGI [8]: > 100 µM | TGI [58]: > 100 µM | TGI [9]: 47.7 µM | TGI [11]: > 100 µM | TGI [12]: > 100 µM | TGI [14]: > 100 µM | TGI [15]: > 100 µM | TGI [16]: 62.5 µM | TGI [17]: > 100 µM | TGI [18]: > 100 µM | TGI [19]: 51.3 µM | TGI [20]: > 100 µM | TGI [21]: 70.9 µM | TGI [22]: > 100 µM | TGI [23]: > 100 µM | TGI [24]: 32 µM | TGI [25]: 81.3 µM | TGI [26]: > 100 µM | TGI [27]: > 100 µM | TGI [28]: 36.9 µM | TGI [29]: > 100 µM | TGI [30]: > 100 µM | TGI [31]: > 100 µM | TGI [32]: > 100 µM | TGI [33]: > 100 µM | TGI [34]: > 100 µM | TGI [35]: > 100 µM | TGI [36]: > 100 µM | TGI [37]: > 100 µM | TGI [38]: > 100 µM | TGI [39]: 65.1 µM | TGI [40]: 48 µM | TGI [59]: 69.4 µM | TGI [41]: > 100 µM | TGI [42]: > 100 µM | TGI [43]: > 100 µM | TGI [44]: > 100 µM | TGI [45]: 80.3 µM | TGI [46]: 85.8 µM | TGI [47]: 31.8 µM | TGI [48]: 61.2 µM | TGI [49]: > 100 µM | TGI [50]: 38.3 µM | TGI [53]: > 100 µM | TGI [54]: > 100 µM | TGI [55]: > 100 µM | TGI [57]: > 100 µM
